Patent US20240158446A1, “CYCLIC COMPOUND HAVING SELECTIVE INHIBITORY ACTION ON KRAS OVER HRAS AND NRAS” (CHUGAI SEIYAKU KABUSHIKI KAISHA, priority 2021, published 2024)

What was measured:
[1] = target: GDP-bound KRAS wild-type protein (Homo sapiens, UniProt P01116); experiment: Binding to KRAS by surface plasmon resonance (SPR), Single Cycle Kinetics; conditions: SPR, Single Cycle Kinetics, GDP-bound KRAS wild-type protein; read-out: KRAS KD
[2] = target: GDP-bound HRAS wild-type protein (Homo sapiens, UniProt P01112); experiment: Binding to HRAS by surface plasmon resonance (SPR), Single Cycle Kinetics; conditions: SPR, GDP-bound HRAS wild-type protein vs GDP-bound KRAS wild-type protein
[3] = target: GDP-bound NRAS wild-type protein (Homo sapiens, UniProt P01111); experiment: Binding to NRAS by surface plasmon resonance (SPR), Single Cycle Kinetics; conditions: SPR, GDP-bound NRAS wild-type protein vs GDP-bound KRAS wild-type protein
GDP-bound NRAS wild-type protein, sequence (P01111 whole entry): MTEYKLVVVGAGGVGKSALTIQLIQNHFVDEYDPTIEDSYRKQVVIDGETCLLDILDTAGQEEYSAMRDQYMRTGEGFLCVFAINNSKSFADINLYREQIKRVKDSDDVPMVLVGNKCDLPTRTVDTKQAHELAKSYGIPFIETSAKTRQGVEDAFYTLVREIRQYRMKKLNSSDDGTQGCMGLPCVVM

GDP-bound KRAS wild-type protein, sequence (P01116 whole entry): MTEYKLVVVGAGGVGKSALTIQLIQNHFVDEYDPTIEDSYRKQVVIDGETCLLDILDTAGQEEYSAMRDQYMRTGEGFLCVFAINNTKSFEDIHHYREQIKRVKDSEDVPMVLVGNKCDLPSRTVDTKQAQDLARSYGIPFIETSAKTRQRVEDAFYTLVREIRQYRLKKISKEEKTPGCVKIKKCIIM
GDP-bound HRAS wild-type protein, sequence (P01112 whole entry): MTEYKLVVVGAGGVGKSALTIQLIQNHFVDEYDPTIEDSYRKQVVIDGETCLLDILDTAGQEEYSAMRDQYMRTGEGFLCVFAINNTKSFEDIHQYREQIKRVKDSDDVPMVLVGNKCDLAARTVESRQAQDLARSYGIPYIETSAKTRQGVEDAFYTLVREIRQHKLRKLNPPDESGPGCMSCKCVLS

SMILES | Kd [1] | HRAS/KRAS (ratio of KD value for HRAS to KD value for KRAS) [2] | NRAS/KRAS (ratio of KD value for NRAS to KD value for KRAS) [3]
CCC[C@H]1C(=O)N[C@@H](C2CCOCC2)C(=O)N(C)CC(=O)N(C)[C@H]2C/C=C\CCN(C2=O)[C@@H](Cc2ccc(C(F)(F)F)cc2)C(=O)N(C)CC(=O)N[C@@H](CCc2ccc(C(F)(F)F)c(Cl)c2)C(=O)N2C[C@H](OCC)C[C@H]2C(=O)NC2(CC(C)(C)C2)C(=O)N(C)[C@@H](C2CCCC2)C(=O)N(C)[C@H](C(=O)N(C)C)CC(=O)N1C [PP3000] | 1300 pM | A (a compound having 10 or more and less than 20 is denoted as A) | AA (a compound having 20 or more is denoted as AA)
CCC[C@H]1C(=O)N[C@@H]([C@@H](C)CC)C(=O)N(C)CC(=O)N(C)[C@H]2C/C=C\CCN(C2=O)[C@@H](Cc2ccc(C)cc2)C(=O)N(C)CC(=O)N[C@@H](CCc2ccc(C(F)(F)F)c(OC)c2)C(=O)N2CC3(CC3)C[C@H]2C(=O)NC2(CC(C)(C)C2)C(=O)N(C)[C@@H](CC(F)(F)F)C(=O)N(C)[C@H](C(=O)N(C)C)CC(=O)N1C [PP3012] | 1900 pM | A (a compound having 10 or more and less than 20 is denoted as A) | A (a compound having 10 or more and less than 20 is denoted as A)
CCC[C@H]1C(=O)N[C@@H](C2CCCCC2)C(=O)N(C)CC(=O)N(C)[C@H]2C/C=C\CCN(C2=O)[C@@H](Cc2ccc(C(F)(F)F)cc2)C(=O)N(C)CC(=O)N[C@@H](CCc2ccc(C(F)(F)F)c(Cl)c2)C(=O)N2C[C@H](OCC)C[C@H]2C(=O)NC2(CC(C)(C)C2)C(=O)N(C)[C@@H]([C@@H](C)CC)C(=O)N(C)[C@H](C(=O)N(C)C)CC(=O)N1C [PP3015] | 2200 pM | A (a compound having 10 or more and less than 20 is denoted as A) | AA (a compound having 20 or more is denoted as AA)
CCC[C@H]1C(=O)N[C@@H](C2CCCCC2)C(=O)N(C)CC(=O)N(C)[C@H]2C/C=C\CCN(C2=O)[C@@H](Cc2ccc(C(F)(F)F)cc2)C(=O)N(C)CC(=O)N[C@@H](CCc2ccc(C(F)(F)F)c(Cl)c2)C(=O)N2C[C@H](OCC)C[C@H]2C(=O)NC2(CC(C)(C)C2)C(=O)N(C)[C@@H](CC(C)C)C(=O)N(C)[C@H](C(=O)N(C)C)CC(=O)N1C [PP3017] | 1500 pM | A (a compound having 10 or more and less than 20 is denoted as A) | AA (a compound having 20 or more is denoted as AA)
CCC[C@H]1C(=O)N[C@@H]([C@@H](C)CC)C(=O)N(C)CC(=O)N(C)[C@H]2C/C=C\CCN(C2=O)[C@@H](Cc2ccc(C(F)(F)F)cc2)C(=O)N(C)CC(=O)N[C@@H](CCc2ccc(Cl)c(Cl)c2)C(=O)N2CCCCC[C@H]2C(=O)NC2(CC(C)(C)C2)C(=O)N(C)[C@@H](C(CC)CC)C(=O)N(C)[C@H](C(=O)N(C)C)CC(=O)N1C [PP3031] | 1900 pM | A (a compound having 10 or more and less than 20 is denoted as A) | AA (a compound having 20 or more is denoted as AA)
CCO[C@@H]1C[C@H]2C(=O)NC3(CCC3)C(=O)N(C)[C@@H](C3CCCC3)C(=O)N(C)[C@H](C(=O)N3CCCCC3)CC(=O)N(C)[C@H]3CCCCCCc4ccc(cc4)C[C@@H](C(=O)N(C)CC(=O)N[C@@H](CCc4ccc(C(F)(F)F)c(OC)c4)C(=O)N2C1)N1CC/C=C\C[C@@H](C1=O)N(C)C(=O)CN(C)C(=O)[C@H]([C@@H](C)CC)NC3=O [PP3033, (1S,7S,11R,13S,19S,22S,26S,29S,35S,37Z)-19-cyclopentyl-11-ethoxy-7-[2-[3-methoxy-4-(trifluoromethyl)phenyl]ethyl]-3,18,21,25,31,34-hexamethyl-29-[(1S)-1-methylpropyl]-22-(piperidine-1-carbonyl)spiro[3,6,9,15,18,21,25,28,31,34,41-undecazapentacyclo[24.15.11.2^43,46.1^35,41.0^9,13]pentapentaconta-37,43(54),44,46(53)-tetraene-16,1′-cyclobutane]-2,5,8,14,17,20,24,27,30,33,55-undecone] | 180 pM | B (a compound having 3 or more and less than 10 is denoted as B) | A (a compound having 10 or more and less than 20 is denoted as A)

Further lines, with some results ahead:

Kd [1] | SMILES | HRAS/KRAS (ratio of KD value for HRAS to KD value for KRAS) [2] | NRAS/KRAS (ratio of KD value for NRAS to KD value for KRAS) [3]
720 pM | CCC[C@H]1C(=O)N[C@@H]([C@@H](C)CC)C(=O)N(C)CC(=O)N(C)[C@H]2C/C=C\CCN(C2=O)[C@@H](Cc2ccc(C)cc2)C(=O)N(C)CC(=O)N[C@@H](CCc2cc(F)c(C(F)(F)F)c(F)c2)C(=O)N2CC3(CC3)C[C@H]2C(=O)NC2(CC(C)(C)C2)C(=O)N(C)[C@@H](CC(F)(F)F)C(=O)N(C)[C@H](C(=O)N(C)C)CC(=O)N1C [PP3003] | A (a compound having 10 or more and less than 20 is denoted as A) | AA (a compound having 20 or more is denoted as AA)
410 pM | CCC[C@H]1C(=O)N[C@@H]([C@@H](C)CC)C(=O)N(C)CC(=O)N(C)[C@H]2C/C=C\CCN(C2=O)[C@@H](Cc2ccc(C)cc2)C(=O)N(C)CC(=O)N[C@@H](CCc2ccc(C(F)(F)F)c(OC)c2)C(=O)N2C[C@H](OCC)C[C@H]2C(=O)NC2(CC(C)(C)C2)C(=O)N(C)[C@@H]([C@@H](C)CC)C(=O)N(C)[C@H](C(=O)N(C)C)CC(=O)N1C [PP3006] | A (a compound having 10 or more and less than 20 is denoted as A) | A (a compound having 10 or more and less than 20 is denoted as A)
370 pM | CCC[C@H]1C(=O)N[C@@H](C2CCCCC2)C(=O)N(C)CC(=O)N(C)[C@H]2C/C=C\CCN(C2=O)[C@@H](Cc2ccc(C(F)(F)F)cc2)C(=O)N(C)CC(=O)N[C@@H](CCc2ccc(C(F)(F)F)c(Cl)c2)C(=O)N2C[C@H](OCC)C[C@H]2C(=O)NC2(CC(C)(C)C2)C(=O)N(C)[C@@H](CC(C)(C)C)C(=O)N(C)[C@H](C(=O)N(C)C)CC(=O)N1C [PP3014] | A (a compound having 10 or more and less than 20 is denoted as A) | AA (a compound having 20 or more is denoted as AA)
590 pM | CCC[C@H]1C(=O)N[C@@H](C2CCOCC2)C(=O)N(C)CC(=O)N(C)[C@H]2C/C=C\CCN(C2=O)[C@@H](Cc2ccc(C(F)(F)F)cc2)C(=O)N(C)CC(=O)N[C@@H](CCc2ccc(C(F)(F)F)c(Cl)c2)C(=O)N2C[C@H](OCC)C[C@H]2C(=O)NC2(CC(C)(C)C2)C(=O)N(C)[C@@H](CC(C)(C)C)C(=O)N(C)[C@H](C(=O)N(C)C)CC(=O)N1C [PP3022] | A (a compound having 10 or more and less than 20 is denoted as A) | AA (a compound having 20 or more is denoted as AA)
100 pM | CCO[C@@H]1C[C@H]2C(=O)NC3(CC(C)(C)C3)C(=O)N(C)[C@@H](C(CC)CC)C(=O)N(C)[C@H](C(=O)N(C)C)CC(=O)N(C)[C@H]3CCCCCCc4ccc(cc4)C[C@@H](C(=O)N(C)CC(=O)N[C@@H](CCc4ccc(C(F)(F)F)c(OC)c4)C(=O)N2C1)N1CC/C=C\C[C@@H](C1=O)N(C)C(=O)CN(C)C(=O)[C@H]([C@@H](C)CC)NC3=O [PP3032] | A (a compound having 10 or more and less than 20 is denoted as A) | AA (a compound having 20 or more is denoted as AA)
110 pM | CCO[C@@H]1C[C@H]2C(=O)NC3(CC(C)(C)C3)C(=O)N(C)[C@@H](C3CCCC3)C(=O)N(C)[C@H](C(=O)N3CCCC3)CC(=O)N(C)[C@H]3CCCCCCc4ccc(cc4)C[C@@H](C(=O)N(C)CC(=O)N[C@@H](CCc4ccc(C(F)(F)F)c(OC)c4)C(=O)N2C1)N1CC/C=C\C[C@@H](C1=O)N(C)C(=O)CN(C)C(=O)[C@H]([C@@H](C)CC)NC3=O [PP3034, (1S,7S,11R,13S,19S,22S,26S,29S,35S,37Z)-19-cyclopentyl-11-ethoxy-7-[2-[3-methoxy-4-(trifluoromethyl)phenyl]ethyl]-3,3′,3′,18,21,25,31,34-octamethyl-29-[(1S)-1-methylpropyl]-22-(pyrrolidine-1-carbonyl)spiro[3,6,9,15,18,21,25,28,31,34,41-undecazapentacyclo[24.15.11.2^43,46.1^35,41.0^9,13]pentapentaconta-37,43(54),44,46(53)-tetraene-16,1′-cyclobutane]-2,5,8,14,17,20,24,27,30,33,55-undecone] | B (a compound having 3 or more and less than 10 is denoted as B) | A (a compound having 10 or more and less than 20 is denoted as A)
92 pM | CCO[C@@H]1C[C@H]2C(=O)NC3(CC(C)(C)C3)C(=O)N(C)[C@@H](C(CC)CC)C(=O)N(C)[C@H](C(=O)N(C)C)CC(=O)N(C)[C@H]3CCCCCc4ccc(cc4)C[C@@H](C(=O)N(C)CC(=O)N[C@@H](CCc4ccc(C(F)(F)F)c(OC)c4)C(=O)N2C1)N1CC/C=C\C[C@@H](C1=O)N(C)C(=O)CN(C)C(=O)[C@H]([C@@H](C)CC)NC3=O [PP3035] | A (a compound having 10 or more and less than 20 is denoted as A) | AA (a compound having 20 or more is denoted as AA)
